Literature values, collected in article PMC4061246 (Biochimica et biophysica acta, 2014).

Conditions: reported

## Cc1cc(C#N)cc(C)c1Oc1nc(Nc2ccc(C#N)cc2)nc(N)c1Br [etravirine]
  aqueous solubility: < 1 µg/mL

## Cc1cc(/C=C/C#N)cc(C)c1Nc1ccnc(Nc2ccc(C#N)cc2)n1 [rilpivirine]
  aqueous solubility: 0.02 to 0.24 µg/mL
